Measurements reported in patent US7387878B2, “Methods for DNA amplification and sequencing” (Yeda Research and Development Co. Ltd., priority 1998, dated 2008).
Where “and” joins values, the source holds several entries; their conditions need not be identical. Equal entries are not always repeated. Entries after “also recorded” stand apart in the source; their conditions may differ. Where two headings read alike, the source gives them in different places.

Columns and labels:
[1] = target: T1, Taq DNA polymerase (Thermus aquaticus, UniProt P19821); conditions: DMSO in 10% concentration; cited from earlier work
T1 construct: purchased MBI Fermentas

[2] = system: mammalian cells; conditions: cited from earlier work
[3] = system: animals; conditions: cited from earlier work
[4] = target: T1, Taq DNA polymerase; assay: Remaining activity of Taq polymerase after incubation at elevated temperatures; type: biochemical; conditions: for remaining Taq polymerase activity: 1M additive
Protocol: THP(B), THP(A) or glycerol were added from 3M stock solutions (pH 8.8 at 25° C.). The reaction mixtures were overlaid with paraffin oil and incubated at 95° C. or 97° C. Aliquotes (7.5 μl) were taken for polymerase activity assay at different periods of time.

[5] = system: calf thymus DNA (42% GC); assay: DNA melting (absorbance at 260 nm), calf thymus DNA; conditions: 62° C. in aqueous solution
Protocol: (§1) DNA melting studies were conducted in a buffer (1 ml) containing 5.0 mM K2HPO4 and 0.1 mM Na2EDTA at pH 7.5. […] DNA samples were adjusted to O.D260=0.2 and incubated overnight at 37° C. before use, as previously described (Rees et al., 1993). […] The increase in absorbance at 260 nm was monitored in Hewlett Packard 9450A diode array spectrophotometer attached to a temperature programmer and controller. Both the sample and the reference cells were heated together at a rate of 0.5° C./min and the net absorbance was recorded after every 0.5° C. increase. The Tms were determined graphically from the midpoints of the absorbance versus temperature profile.

[6] = system: 349 b.p. fragment (66.5% GC content) from Halobacterium marismortui genomic DNA; assay: PCR with THP(B) using Taq DNA polymerase; type: biochemical
Protocol: MgCl2 concentrations of 1.0 mM and 1.75 mM were used in the absence and presence of THP(B), respectively, added from a 3M stock solution (pH 8.8 at 25° C.). […] (primer extension).
PCR reaction was performed by Taq DNA polymerase as described in Materials and Methods, section (vii), using as a template whole genomic DNA of Halobacterium marismortui (66.5% GC) and the 28-mer primers 1 and 2 described in section (i).

[7] = system: DNAs of varying base compositions; assay: DNA melting (absorbance at 260 nm), DNAs of varying base compositions
Protocol: as §1

[8] = system: poly(dA-dT); assay: DNA melting (absorbance at 260 nm), poly(dA-dT)
Protocol: as §1

[9] = system: [d(GCTTAAGC)]2 (SEQ ID NO:2); assay: Thermal transition of short oligonucleotide by 1H NMR chemical shift; conditions: for Tm: DNA alone 48.0
Protocol: (§2) ^1H NMR measurements were carried out on a Bruker AMX 400 NMR MHZ spectrometer at 400.13 MHZ (equipped with an Aspect 300 control). For the ^1H NMR measurements, 1.0 mM DNA oligonucleotides were dissolved in 0.5 ml phosphate buffer solution (pH 7.2) in D2O (20 mM, for [d(ATGCAT)]2 (SEQ ID NO:1) and 40 mM for [d([…])]2 (SEQ ID NO:2) containing 50 mM NaCl and 0.1 mM EDTA. The solutions were lyophilized and then redissolved in 0.5 ml D2O (99.96%), heated to 65 EC and gradually cooled to 5 EC, and then degassed with argon at room temperature.
(§3) The thermal transitions of the short oligonucleotides [d(ATGCAT)]2 (SEQ ID NO:1) (FIG. 4A) and [d([…])]2 (SEQ ID NO:2) (FIG. 4B) were studied in the absence (open squares) and presence of 0.5M (open circles) and 1.0M (filled squares) THP(B). NMR chemical shift changes of the C4H5 proton of [d(ATGCAT)]2 (SEQ ID NO:1) and of the G1H8 proton of [d([…])]2 (SEQ ID NO:2) were measured as a function of increasing temperatures as described in Materials and Methods section (iii).

[10] = system: [d(ATGCAT)]2 (SEQ ID NO:1); assay: as above; conditions: for Tm: DNA alone 31.5
Protocol: as §2, §3

[11] = target: T7 DNA polymerase (Escherichia phage T7, UniProt P00581); conditions: 40% formamide; cited from earlier work
[12] = target: T2, Klenow DNA polymerase (Escherichia coli, UniProt P00582); assay: Klenow DNA polymerase activity assay at 37° C.; type: biochemical; conditions: for effect on Klenow polymerase activity: 1.0M additive, separate experiment, data not shown; for effect on Klenow DNA polymerase activity: 5.0M L-proline, 37° C., 6.7, 10.0 and 15.0 mM MgCl2
T2 construct: Klenow fragment of DNA polymerase I; purchased MBI Fermentas
Protocol: (§4) Klenow fragment (0.1 units) was added to the microtubes with reaction mixture pre-heated to 37° C., and following 7.5 minutes incubation at 37° C. (a time-point within the region of linear kinetics determined in a separate experiment, not shown), the reaction microtubes were placed on ice, and the reaction was stopped by addition of 12 μl of 50 mM EDTA and then applied on strips of chromatographic paper (Whatman No. 3). Strips were washed three times by cold TCA 10%, dried and the radioactivity was counted.

[13] = target: Taq polymerase (Thermus aquaticus, UniProt P19821); conditions: 95-97° C.; cited from earlier work
[14] = system: DNA; conditions: for each 10% increase in glycerol concentration; cited from earlier work
[15] = system: 349 b.p. fragment (66.5% GC) from Halobacterium marismortui genomic DNA; conditions: PCR with 10-15 units Klenow, denaturation 70° C., FIG. 12
[16] = system: 349 b.p. fragment (66.5% GC) from Halobacterium marismortui genomic DNA; conditions: 4.0M proline
Protocol: PCR was performed in 25 μl reaction mixture containing 250 ng of Halobacterium marismortui genomic DNA template, 0.12 nM of each 30-mer oligonucleotide primers 5 and 6 described in section (i) above, 0.3 μl of Klentaq1 and Pfu (or Vent) enzymes mixture, prepared as described (Barnes, 1994), 200 μM of each dNTP, in PCR buffer containing: 10 mM Tris-HCl (pH 8.3 at 25° C.) and 50 mM KCl. […] Reaction mixtures were preheated for 1 min at their respective denaturation temperatures, except for reactions performed at Td 95° C., that were preheated for 1 min at 94° C., and then subjected to 35 thermal cycles as follows: (I) 30 sec incubation at 72-95° C., as indicated in each experiment (denaturation step); (ii) 90 sec incubation at 37-55° C., as indicated in each experiment (primer annealing step); and (iii) 7 min incubation at 63-69° C., as indicated in each experiment (primer extension).
Reaction mixtures were preheated for 1 min at their respective denaturation temperatures (77° C. and 75° C.), and then subjected to 35 thermal cycles as follows: (i) 30 sec incubation at 77° C. or 75° C. (denaturation step); (ii) 90 sec incubation at 44° C. (primer annealing step); and (iii) 7 min incubation at 65° C. (primer extension).

[17] = system: 349 b.p. fragment (66.5% GC) from Halobacterium marismortui genomic DNA; conditions: 1.0M proline
Protocol: PCR was performed in 25 μl reaction mixture containing 3 ng of Halobacterium marismortui genomic DNA template, 0.12 nM of each 28-mer oligonucleotide primers 3 and 4 described in section (i) above, 0.5 units of Taq DNA polymerase, 200 μM of each dNTP, in PCR buffer containing: 10 mM Tris-HCl (pH 8.8 at 25° C.), 50 mM KCl, 0.08% Nonidet P40. […] Reaction mixtures were preheated for 3 min at their respective denaturation temperatures, except for reactions performed at Td 95° C., that were preheated for 3 min at 94° C., and then subjected to 35 thermal cycles as follows: (I) 30 sec incubation at 91-95° C., as indicated in each experiment (denaturation step); (ii) 90 sec incubation at 55° C. (primer annealing step); and (iii) 60 sec incubation at 72° C. (primer extension).

[18] = system: Micrococcus lysodeikticus DNA (72% GC); conditions: 6.2M proline
Protocol: as §1

[19] = target: T2, Klenow DNA polymerase; assay: Remaining activity of Klenow DNA polymerase after incubation at 65° C.; type: biochemical; conditions: 5M proline
Protocol: as §4
The microtubes were vortexed and Klenow enzyme was added to the samples. The Klenow DNA polymerase activity assay was performed as described in section (iv) above at 6.7 mM concentration of MgCl2. To each aliquot (5 μl) 20 μl of stock solution containing all other components of the assay were added, making a total reaction volume of 25 μl and a 5-fold dilution of the aliquots.

[20] = 30 min incubation at 97° C., 10% without additives
[21] = 60 min incubation at 97° C., 5% or less without additives

T1 sequence (P19821 whole entry): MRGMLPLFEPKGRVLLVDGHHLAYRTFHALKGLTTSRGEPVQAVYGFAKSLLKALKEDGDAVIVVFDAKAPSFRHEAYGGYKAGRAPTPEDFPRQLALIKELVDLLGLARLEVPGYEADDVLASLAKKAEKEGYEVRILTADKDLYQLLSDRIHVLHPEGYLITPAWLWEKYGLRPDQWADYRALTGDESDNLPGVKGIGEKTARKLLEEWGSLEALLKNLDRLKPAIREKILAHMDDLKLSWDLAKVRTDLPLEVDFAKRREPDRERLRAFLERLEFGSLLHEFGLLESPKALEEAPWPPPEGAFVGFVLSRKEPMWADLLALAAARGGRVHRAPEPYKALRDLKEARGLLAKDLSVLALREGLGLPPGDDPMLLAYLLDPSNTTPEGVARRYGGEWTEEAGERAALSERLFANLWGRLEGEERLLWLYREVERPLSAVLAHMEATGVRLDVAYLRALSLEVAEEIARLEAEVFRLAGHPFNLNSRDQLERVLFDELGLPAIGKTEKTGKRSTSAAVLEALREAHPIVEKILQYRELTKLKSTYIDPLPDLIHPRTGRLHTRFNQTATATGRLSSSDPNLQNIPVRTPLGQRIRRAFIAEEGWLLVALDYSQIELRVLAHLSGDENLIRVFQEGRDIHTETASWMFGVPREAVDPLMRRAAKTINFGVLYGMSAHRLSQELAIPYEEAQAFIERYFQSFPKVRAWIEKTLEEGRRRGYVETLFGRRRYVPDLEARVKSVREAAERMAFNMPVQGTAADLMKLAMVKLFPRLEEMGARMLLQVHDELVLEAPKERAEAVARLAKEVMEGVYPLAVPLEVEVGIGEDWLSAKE
T2 sequence (P00582 324-928): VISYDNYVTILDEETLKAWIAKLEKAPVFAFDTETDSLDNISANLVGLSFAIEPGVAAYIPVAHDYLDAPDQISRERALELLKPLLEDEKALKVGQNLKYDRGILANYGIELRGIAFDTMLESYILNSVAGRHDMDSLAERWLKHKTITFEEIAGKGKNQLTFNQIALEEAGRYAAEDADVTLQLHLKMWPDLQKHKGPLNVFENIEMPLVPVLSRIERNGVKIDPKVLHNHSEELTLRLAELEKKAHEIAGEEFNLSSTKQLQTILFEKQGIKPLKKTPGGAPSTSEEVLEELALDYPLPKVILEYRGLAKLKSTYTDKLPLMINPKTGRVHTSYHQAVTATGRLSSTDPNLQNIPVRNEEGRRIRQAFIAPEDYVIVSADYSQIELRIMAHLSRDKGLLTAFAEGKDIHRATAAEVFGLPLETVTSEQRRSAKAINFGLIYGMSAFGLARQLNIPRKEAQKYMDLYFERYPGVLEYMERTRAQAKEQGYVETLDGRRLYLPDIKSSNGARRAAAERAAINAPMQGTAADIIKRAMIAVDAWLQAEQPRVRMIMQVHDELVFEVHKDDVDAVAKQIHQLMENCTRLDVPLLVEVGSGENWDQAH
Chain of Taq polymerase (P19821 whole entry): as the sequence (P19821 whole entry) above
Chain of T7 DNA polymerase (P0AA25 2-109): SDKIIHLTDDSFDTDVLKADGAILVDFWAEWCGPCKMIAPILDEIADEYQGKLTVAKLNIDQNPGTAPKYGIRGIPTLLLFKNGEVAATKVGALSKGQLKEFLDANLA
Chain of T7 DNA polymerase (P00581 whole entry): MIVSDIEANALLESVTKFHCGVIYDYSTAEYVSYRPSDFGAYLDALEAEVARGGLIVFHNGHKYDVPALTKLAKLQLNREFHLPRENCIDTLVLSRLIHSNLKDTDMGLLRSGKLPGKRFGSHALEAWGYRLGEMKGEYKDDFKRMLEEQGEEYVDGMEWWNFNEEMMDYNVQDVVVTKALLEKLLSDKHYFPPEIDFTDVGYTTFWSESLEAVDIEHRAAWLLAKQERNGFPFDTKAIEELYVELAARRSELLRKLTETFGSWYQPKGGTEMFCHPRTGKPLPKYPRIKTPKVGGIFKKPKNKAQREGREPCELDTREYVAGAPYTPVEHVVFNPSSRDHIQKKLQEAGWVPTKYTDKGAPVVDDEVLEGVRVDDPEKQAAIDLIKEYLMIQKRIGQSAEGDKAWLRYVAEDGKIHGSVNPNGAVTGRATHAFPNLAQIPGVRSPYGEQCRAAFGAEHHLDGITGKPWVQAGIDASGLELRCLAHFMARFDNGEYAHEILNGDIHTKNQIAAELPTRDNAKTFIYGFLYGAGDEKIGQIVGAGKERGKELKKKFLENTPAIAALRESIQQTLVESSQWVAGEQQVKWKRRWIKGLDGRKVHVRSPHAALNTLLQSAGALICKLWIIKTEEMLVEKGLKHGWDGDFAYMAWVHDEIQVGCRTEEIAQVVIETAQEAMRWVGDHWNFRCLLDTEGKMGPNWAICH

SMILES: C[S+](C)[O-] [DMSO]
- inhibition of Taq DNA polymerase activity [1]: 53%

SMILES: CC1=NCC(O)C(C(=O)O)N1 (stereo not shown) [THP(A), 2-methyl-4-carboxy-5-hydroxy-3,4,5,6-tetrahydropyrimidine]
- toxicity ([2]; mammalian cells): not toxic
- toxicity ([3]; animals): not toxic
- effectiveness in stabilizing Taq DNA polymerase (comparison) ([4]; 97° C., 1M additives, FIG. 5): more effective than THP(B) or glycerol
- remaining Taq polymerase activity [4, 20]: 50% and 55%
- remaining Taq activity relative to no additives ([4]; 60 min incubation at 97° C.): 10 fold
- remaining Taq polymerase activity [4, 21]: 45% and 55%

SMILES: CC1=NCCC(C(=O)O)N1 (stereo not shown) [THP(B), 2-methyl-4-carboxy-3,4,5,6-tetrahydropyrimidine]
- DNA melting temperature ([5]; 3 or 4M THP(B)): 41 °C
- PCR amplification ([6]; 0.5M THP(B), Td 92° C.): amplified sequences were produced only in the presence of THP(B)
- yield and specificity of DNA amplification ([6]; 0.5M THP(B), Td 95° C. and 92° C.): improved
- PCR amplification ([6]; 1.0M THP(B), Td 89° C., 0.5 units Taq): markedly lower
- PCR amplification ([6]; 1.0M THP(B), Td 90° C., 0.5 or 0.75 units Taq): specific amplified sequence was generated only in the presence of THP(B)
- PCR amplification ([6]; 1.0M THP(B), Td 95° C.): improved PCR specific amplification
- toxicity [2]: not toxic
- temperature range in which all DNAs melt ([7]; 4M THP(B), 39 to 75° C. in its absence): 40-43 °C
- change in melting temperature of poly(dA-dT) ([8]; 1-4M THP(B)): did not exhibit any change; also recorded: no change
- toxicity ([3]; in vivo): not toxic
- decrease of melting temperature ([9]; 0.5M additive): 3 EC
- Tm ([9]; 0.5 M additive): 45.0 °C
- decrease of melting temperature ([9]; 1.0M additive): 6 EC
- Tm ([9]; 1.0 M additive): 42.0 °C
- decrease of melting temperature ([10]; 0.5M additive): 2 EC
- Tm ([10]; 0.5 M additive): 29.5 °C
- decrease of melting temperature ([10]; 1.0M additive): 3.5 EC
- Tm ([10]; 1.0 M additive): 28.0 °C
- remaining Taq polymerase activity [4, 20]: 40%
- remaining Taq polymerase activity [4, 21]: 20%

SMILES: C[N+](C)(C)CC(=O)O [betaine, Betaine, reference compound]
- decrease of melting temperature ([9]; 1.0M additive): −2 EC
- Tm ([10]; 1.0 M additive): 29.2 °C

SMILES: NC=O [formamide]
- T7 DNA polymerase activity [11]: completely inactive

SMILES: OCC(O)CO [glycerol]
- effect on Klenow polymerase activity [12]: stimulative
- thermal stability of Taq polymerase [13]: doubling
- lowering of DNA melting temperatures [14]: 2.5-3 °C

SMILES: O=C(O)[C@@H]1CCCN1 [proline, L-Proline]
- DNA melting temperature ([5]; 6.2M proline): 27 °C
- effect on Klenow polymerase activity [12]: stimulative
- effect on Klenow DNA polymerase activity ([12]; listed as L-proline): only slightly decreased
- effect on Klenow DNA polymerase activity ([12]; listed as Proline): only slightly decrease
- proline concentration sufficient to confer stability to Klenow polymerase (and conduct successful PCR) [15]: 3-5.5 M
- PCR performance ([16]; denaturation temperature 75° C.): but not at 75 °C
- PCR performance ([16]; denaturation temperature 77° C.): enough for successful PCR
- temperature range in which all DNAs melt ([7]; 6.2M proline, 38 to 78° C. in its absence): 25-32 °C
- Tm values of the tested natural DNAs ([7]; 6.2 M proline, 57-78° C. without): 28-32 °C
- change in melting temperature of poly(dA-dT) ([8]; 1-5M proline): did not exhibit any change
- change in melting temperature of poly(dA-dT) ([8]; 5-6.2M proline): small effect
- melting lower than DNAs of GC content 42% and 26% ([8]; 6.2M proline): about 15 °C
- PCR performance ([17]; denaturation temperature 91° C.): enabled successful PCR
- PCR performance ([17]; denaturation temperature 95° C.): did not impair PCR performance
- range of melting higher than DNAs of GC content 42% and 26% [18]: about 5 °C
- half life of Klenow DNA polymerase relative to no additive [19]: 30-50 fold
